Source: PubChem BioAssay (NCI)
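Results reflect a 48-hour exposure of cells in 96-well plates to compound at five concentrations. TGI is the concentration that stops growth completely.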

Tests used:
Experiment in all cases: NCI tumour cell line growth inhibition, 48 h
[1] = system: U251 CNS
[2] = system: NCI-H23 lung
[3] = system: UACC-62 melanoma
[4] = system: OVCAR-8 ovarian
[5] = system: HOP-92 NSCLC
[6] = system: NCI/ADR-RES ovarian
[7] = system: MDA-MB-435
[8] = system: MDA-MB-231 breast
[9] = system: MDA-N
[10] = system: SF-539 CNS
[11] = system: HCT-116 colon
[12] = system: EKVX NSCLC
[13] = system: A498 renal
[14] = system: OVCAR-4 ovarian
[15] = system: SNB-19 CNS
[16] = system: MCF7 breast
[17] = system: KM12 colon
[18] = system: SK-MEL-5 melanoma
[19] = system: NCI-H226 lung

SMILES	TGI [1] [µM]	TGI [2] [µM]	TGI [3] [µM]	TGI [4] [µM]	TGI [5] [µM]	TGI [6] [µM]	TGI [7] [µM]	TGI [8] [µM]	TGI [9] [µM]	TGI [10] [µM]	TGI [11] [µM]	TGI [12] [µM]	TGI [13] [µM]	TGI [14] [µM]	TGI [15] [µM]	TGI [16] [µM]	TGI [17] [µM]	TGI [18] [µM]	TGI [19] [µM]
CC(=O)OCC1OC(O[C@@H]2C[C@H]3C(C)(C)[C@H](OC(C)=O)CC[C@]3(C)[C@H]3CC[C@]4(C)C(=CC[C@H]4[C@@H](C)C[C@@H](O)[C@H](O)C(C)(C)O)[C@@]32C)C(O)C(O)C1O (some centres not stated)	25.3	35.5	30.5	33.4	30.9	> 100	28	31.2	32.7	29.9	27.5	40.2	34	29.8	29.3	33.2	–	–	–
CC1=CSC(O)(c2ccc(Cl)cc2)c2noc(=O)n21 (configuration not stated)	–	> 100	> 100	> 100	> 100	> 100	> 100	> 100	> 100	> 100	> 100	> 100	> 100	> 100	> 100	> 100	> 100	> 100	> 100
OC12CC3c4ccccc4NC3C3Oc4cccc5c4C31CCN(CC1CC1)C2C5 (configuration not stated)	31.1	30.6	33.3	32.3	24.5	47.4	32.3	32.4	35.1	90.5	33.5	87.7	32.2	55.5	36.8	32.8	37.3	31.5	74.9
C=CCOc1ccc(C2(c3ccc(OCC=C)cc3)C(=O)Nc3ccccc32)cc1	> 10	> 10	> 10	> 10	> 10	> 10	> 10	> 10	> 10	> 10	> 10	> 10	> 10	> 10	> 10	> 10	> 10	> 10	> 10
COc1ccc(C2C3=C(COC3=O)OC(C)(C)Oc3cc4c(cc32)OCO4)cc1 (configuration not stated)	> 100	> 100	> 66.6	> 100	> 65.8	> 81.6	14.9	97.9	8.97	> 72.7	> 85.4	> 92.7	85.2	> 100	> 100	> 100	> 81	99.8	99.2
CCN(CC)CCOc1ccc(N2Cc3ccccc3C2=O)cc1	> 10	> 10	> 10	> 10	> 10	> 10	> 10	> 10	> 10	> 10	> 10	> 10	> 10	> 10	> 10	> 10	–	> 10	> 10
O=C1N[C@H]2C(=O)c3c(Cl)sc(Cl)c3[C@H]2O1	11.6	22.5	28.2	7.74	26.4	> 71.5	17.8	32	14.7	20.6	8.73	3.85	60.5	–	29.9	52.5	44.2	35	> 100
O=C(/C=c1\oc(=O)/c(=C/C(=O)c2ccc(Cl)cc2)oc1=O)c1ccc(Cl)cc1	> 100	> 100	> 100	> 100	> 100	> 100	> 100	> 100	> 100	> 100	> 100	> 100	> 100	> 100	> 100	> 100	> 100	> 100	> 100
CC(O)CCNC(=O)Nc1c(C(F)(F)F)cc(-c2ccccc2)[nH]c1=O (configuration not stated)	> 100	> 100	> 100	> 100	> 100	> 100	> 100	> 100	> 100	–	> 100	> 100	> 100	> 100	> 100	> 100	> 100	> 100	> 100
Nc1nc(N)c2ncn(-c3ccc(Cl)c(Cl)c3)c2n1	> 100	40.4	43	> 100	> 100	> 100	> 100	77.7	> 100	67.6	40.3	> 100	32.4	> 100	> 100	> 100	97.5	> 100	> 100
CCCCC1C(=O)N(c2ccc(S(=O)(=O)Nc3ccccn3)cc2)N(c2ccc(O)c(C(=O)O)c2)C1=O (configuration not stated)	> 100	> 100	> 100	> 100	> 100	> 100	> 100	> 100	> 100	> 100	> 100	> 100	> 100	> 100	> 100	> 100	> 100	> 100	> 100
FC(F)(F)c1ccc2c(c1)nc(Cc1ccc(Cl)c(Cl)c1)n2CC1CCCN2CCCCC12 (configuration not stated)	59.7	–	30.2	> 100	> 100	84.7	> 100	48.7	38.8	40	30.6	80.3	67.6	> 100	53.1	62.9	> 100	30.3	90.7
c1cc2[nH]snc2c2cncc12	–	> 100	> 100	> 100	85.7	> 100	> 100	> 100	> 100	> 100	> 100	> 100	> 100	> 100	–	> 100	> 100	> 100	> 100
COc1cc(OC)cc(-n2c(N)c(-c3nc4ccccc4s3)c3ccc([N+](=O)[O-])cc3c2=O)c1	> 100	> 100	> 100	> 100	15.8	> 100	> 100	> 100	> 100	37.5	> 100	–	76.7	78.9	> 100	> 100	> 100	> 100	> 100
Cc1cc(C)c(S(=O)(=O)N(CCCCCCN)OCCCN)c(C)c1	32.6	32	40	27.9	29.9	> 100	> 100	24.4	32.2	34.2	31.7	29.9	–	46.2	38.2	37.3	32.1	37.6	86.5
CS(=O)(=O)N1CC(CCl)c2ccc(NCCN)cc21 (configuration not stated)	> 100	> 100	–	> 100	74.6	> 100	> 100	> 100	> 100	> 100	> 100	> 100	> 100	> 100	> 100	> 100	> 100	> 100	> 100
COC(=O)CCCC(=O)NC1=C(Nc2ccccc2)C(=O)c2ccccc2C1=O	29.3	29.6	11.9	> 100	73.6	56	17.4	43.8	15	35	32.7	49.7	32.5	37.1	34.6	32.1	20.2	–	–
COC(=O)/C(=N\N)C(C(=O)C(=O)Nc1cccc([N+](=O)[O-])c1)c1nc2ccc(C(=O)c3ccccc3)cc2[nH]c1=O (configuration not stated)	> 100	> 100	> 100	> 100	> 100	> 100	> 100	> 100	> 100	> 100	> 100	> 100	–	> 100	> 100	> 100	> 100	> 100	> 100
Cc1ccc(/C=N/Nc2cc(C)c3ccccc3n2)s1	43	96.3	> 100	> 100	93.8	90.6	> 100	19.9	37.6	51.5	> 100	27	–	> 100	> 100	39.6	38.5	75.2	52.7
O=c1oc2ccccc2cc1-c1csc(Nc2cc(Cl)cc(Cl)c2)n1	11.7	> 56.7	> 100	> 52	> 58.3	> 83.7	> 53.1	63.8	> 100	5.16	> 38.3	> 100	65.6	–	> 52.8	61.4	> 58.6	> 100	> 56.1
CN(C)/N=C1\C=C2CC[C@H](O[Si](C)(C)C(C)(C)C)[C@@]2(C)CC1	29.7	52.4	30.4	33.3	28.5	34.5	32	30.3	41.4	42.4	–	38.6	38.7	28.6	31.9	31.5	30.9	24.9	35
CCCC(=O)OCC1(CO)C/C(=C/CC(C(C)C)C(C)C)C(=O)O1 (configuration not stated)	> 100	> 100	> 100	> 100	> 100	> 100	> 100	> 100	> 100	–	> 100	> 100	> 100	> 100	> 100	> 100	> 100	> 100	> 100
CCOC(=O)c1c(C)noc1/N=N/N(CCO)CCO	> 100	> 100	> 100	> 100	88.5	> 100	> 100	> 100	> 100	–	> 100	> 100	75.3	> 100	> 100	> 100	> 100	32.5	63.5
N#Cc1c(N)c2c(c(-c3ccccc3)c1-c1ccccc1)C(=O)N(Nc1ccccc1)C2=O	> 100	–	> 100	> 100	> 100	> 100	> 100	> 100	> 100	> 100	43.7	> 100	> 100	> 100	> 100	> 100	56.4	78.5	> 100
COc1ccc(/C=N/NC(=O)c2ccccc2Nc2ccccc2C(=O)N/N=C/c2ccc(OC)cc2)cc1	> 100	> 100	> 100	> 100	> 100	> 100	> 100	> 100	> 100	–	> 100	> 100	> 100	> 100	> 100	> 100	> 100	> 100	> 100
